The values below come from ChEMBL document CHEMBL1250448, “Inhibitor hijacking of Akt activation” (Nat Chem Biol, 2009).

Test [1] deals with RAC-alpha serine/threonine-protein kinase (Homo sapiens), P31749 [M227G]. The test is described as follows: Induction of myristoylated AKT1 M227G Thr308 hyperphosphorylation expressed in PC3 cells at 2.5 uM after 30 mins by immunoblotting. The note with it: PC-3. In kind it is cell-based. On the technique in general: In western blotting, separated proteins are transferred to a membrane and probed.
Sequence of RAC-alpha serine/threonine-protein kinase (Homo sapiens), P31749 [M227G] (P31749 whole entry M227G): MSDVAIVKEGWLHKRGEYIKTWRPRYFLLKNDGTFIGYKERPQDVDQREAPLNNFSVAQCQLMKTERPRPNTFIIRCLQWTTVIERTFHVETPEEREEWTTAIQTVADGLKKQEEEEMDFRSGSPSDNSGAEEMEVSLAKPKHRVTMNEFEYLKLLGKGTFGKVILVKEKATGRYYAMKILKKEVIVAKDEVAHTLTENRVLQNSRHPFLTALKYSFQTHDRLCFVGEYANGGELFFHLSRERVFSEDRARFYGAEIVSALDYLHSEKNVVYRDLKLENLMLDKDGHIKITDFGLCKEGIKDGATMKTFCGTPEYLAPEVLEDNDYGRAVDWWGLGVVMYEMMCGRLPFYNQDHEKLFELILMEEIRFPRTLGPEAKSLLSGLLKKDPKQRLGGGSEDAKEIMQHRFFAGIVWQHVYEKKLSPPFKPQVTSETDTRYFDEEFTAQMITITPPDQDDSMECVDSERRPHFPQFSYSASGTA

Test [2] relates to HEK-293T. The test is described as follows: Induction of nonmyristoylated AKT2 M225G and kinase dead D289A mutant Thr308 hyperphosphorylation expressed in HEK293T cells at 2.5 uM after 30 mins by immunoblotting. In kind it is cell-based.
In test [3] the test system is RAC-alpha serine/threonine-protein kinase (Homo sapiens), P31749 [M227G]. The test is described as follows: Inhibition of myristoylated AKT1 M227G mutant expressed in HEK293T cells assessed as reduction of GSK3-beta Ser9 phosphorylation after 30 mins by immunoblotting. In kind it is cell-based. The note with it: HEK-293T.
In test [4] the test system is MCF7. The test is described as follows: Induction of myristoylated AKT2 M225G mutant Ser473 hyperphosphorylation expressed in MCF7 cells at 2.5 uM after 30 mins by immunoblotting. In kind it is cell-based.
In test [5] the test system is HEK-293T. The test can be described thus: Induction myristoylated AKT2 M225G mutant Thr308 hyperphosphorylation expressed in HEK293T cells at 2.5 uM after 30 mins pretreated with mTOR kinase inhibitor PP242 for 10 mins before compound addition by immunoblotting. In kind it is cell-based.
Test [6] deals with RAC-alpha serine/threonine-protein kinase (Homo sapiens), P31749 [M227G]. The test can be described thus: Induction of membrane localized myristoylated AKT1 M227G mutant Thr308 hyperphosphorylation expressed in HEK293T cells at 2.5 uM after 30 mins by immunoblotting. In kind it is cell-based. The following applies: HEK-293T.
Test [7] shares this test system. The test is described as follows: Induction of mCherry tagged AKT1 M227G Ser473 hyperphosphorylation expressed in HEK293 cells at 2.5 uM after 30 mins by immunoblotting. In kind it is cell-based.
Test [8] shares this test system. The test is described as follows: Increase in catalytic activity of compound exposed AKT1 M227G mutant expressed in HEK293 cells measured post compound dissociation by in vitro immunoprecipitation kinase assay relative to untreated AKT1 M227G mutant. The note with it: HEK-293.
Test [9] has as its system PC-3. The test can be described thus: Induction of myristoylated AKT2 M225G and kinase dead D289A mutant Thr308 hyperphosphorylation expressed in PC3 cells at 2.5 uM after 30 mins by immunoblotting. In kind it is cell-based.
Test [10] relates to PC-3. The test is described as follows: Induction of myristoylated AKT2 M225G and kinase dead D289A mutant Ser473 hyperphosphorylation expressed in PC3 cells at 2.5 uM after 30 mins by immunoblotting. In kind it is cell-based.
In test [11] the test system is HEK-293T. The test is described as follows: Induction of myristoylated AKT3 M229G mutant Thr308 hyperphosphorylation expressed in HEK293T cells at 2.5 uM after 30 mins by immunoblotting. In kind it is cell-based.
The test system of test [12] is RAC-alpha serine/threonine-protein kinase (Homo sapiens), P31749 [M227G]. The test is described as follows: Induction of myristoylated AKT1 M227G mutant Thr308 hyperphosphorylation expressed in HEK293 cells at 2.5 uM after 30 mins by immunoblotting. The following applies: HEK-293.
Test [13] deals with HEK-293T. The test is described as follows: Induction myristoylated AKT2 M225G mutant Ser473 hyperphosphorylation expressed in HEK293T cells at 2.5 uM after 30 mins pretreated with pan-PI3K inhibitor PIK90 for 10 mins before compound addition by immunoblotting. In kind it is cell-based.
The test system of test [14] is HEK-293T. The test is described as follows: Induction of myristoylated AKT3 M229G mutant Thr308 hyperphosphorylation expressed in HEK293T cells at 2.5 uM after 30 mins pretreated with mTOR kinase inhibitor PP242 for 10 mins before compound addition by immunoblotting. In kind it is cell-based.
Test [15] deals with RAC-alpha serine/threonine-protein kinase (Homo sapiens), P31749 [M227G]. The test is described as follows: Induction of myristoylated AKT1 M227G mutant Ser473 hyperphosphorylation expressed in HEK293 cells after 30 mins by immunoblotting. The note with it: HEK-293.
The test system of test [16] is RAC-alpha serine/threonine-protein kinase (Homo sapiens), P31749 [M227G,D292A]. The test is described as follows: Induction of myristoylated AKT1 M227G and kinase dead D292A mutant Thr308 hyperphosphorylation expressed in HEK293T cells at 2.5 uM after 30 mins by immunoblotting. In kind it is cell-based. The note with it: HEK-293T.
Sequence of RAC-alpha serine/threonine-protein kinase (Homo sapiens), P31749 [M227G,D292A] (P31749 whole entry M227G/D292A): as the sequence (P31749 whole entry M227G) above, with D292A counted along it
In test [17] the test system is RAC-alpha serine/threonine-protein kinase (Homo sapiens), P31749 [M227G]. The test is described as follows: Induction of myristoylated AKT1 M227G mutant Ser473 hyperphosphorylation expressed in HEK293T cells at 2.5 uM after 30 mins pretreated with pan-PI3K inhibitor PIK90 for 10 mins before compound addition by immunoblotting. In kind it is cell-based. The following applies: HEK-293T.

Test [18] has the same test system. The test is described as follows: Induction of myristoylated AKT1 M227G Thr308 hyperphosphorylation expressed in HEK293 cells coexpressing flag-tagged wild type AKT1 after 30 mins by immunoblotting. In kind it is cell-based.
The test system is the same in test [19]. The test can be described thus: Induction of myristoylated AKT1 M227G mutant Thr308 hyperphosphorylation expressed in HEK293 cells after 30 mins by immunoblotting. The note with it: HEK-293.
For test [20] the test system is unchanged. The test can be described thus: Induction of myristoylated AKT1 M227G Ser473 hyperphosphorylation expressed in MiaPaCa2 cells at 2.5 uM after 30 mins by immunoblotting. In kind it is cell-based.
For test [21], the system named is HEK-293T. The test is described as follows: Induction myristoylated AKT2 M225G mutant Thr308 hyperphosphorylation expressed in HEK293T cells at 2.5 uM after 30 mins by immunoblotting. In kind it is cell-based.
The subject of test [22] is MiaPaCa2. The test is described as follows: Induction of myristoylated AKT2 M225G mutant Thr308 hyperphosphorylation expressed in MiaPaCa2 cells at 2.5 uM after 30 mins by immunoblotting. In kind it is cell-based.
Test [23] relates to MCF7. The test is described as follows: Induction of myristoylated AKT2 M225G and kinase dead D289A mutant Thr308 hyperphosphorylation expressed in MCF7 cells at 2.5 uM after 30 mins by immunoblotting. In kind it is cell-based.
In test [24] the test system is RAC-alpha serine/threonine-protein kinase (Homo sapiens), P31749 [M227G,R25C]. The test is described as follows: Induction of myristoylated AKT1 M227G and R25C mutant Thr308 hyperphosphorylation expressed in HEK293T cells at 2.5 uM after 30 mins by immunoblotting. The following applies: HEK-293T. In kind it is cell-based.
Sequence of RAC-alpha serine/threonine-protein kinase (Homo sapiens), P31749 [M227G,R25C] (P31749 whole entry R25C/M227G): as the sequence (P31749 whole entry M227G) above, with R25C counted along it
Test [25] relates to HEK-293T. The test is described as follows: Induction myristoylated AKT2 M225G mutant Ser473 hyperphosphorylation expressed in HEK293T cells at 2.5 uM after 30 mins pretreated with mTOR kinase inhibitor PP242 for 10 mins before compound addition by immunoblotting. In kind it is cell-based.
Test [26] concerns RAC-alpha serine/threonine-protein kinase (Homo sapiens), P31749 [M227G,D292A]. The test is described as follows: Induction of myristoylated AKT1 M227G and kinase dead D292A mutant Thr308 hyperphosphorylation expressed in MiaPaCa2 cells at 2.5 uM after 30 mins by immunoblotting. In kind it is cell-based.
The subject of test [27] is RAC-alpha serine/threonine-protein kinase (Homo sapiens), P31749 [M227G]. The test can be described thus: Induction of AKT1 M227G Thr308 hyperphosphorylation expressed in HEK293 cells at 2.5 uM after 30 mins pretreated with allosteric AKT inhibitor Akti-1,2 10 mins before compound addition by immunoblotting.
Test [28] shares this test system. The test is described as follows: Induction of flag tagged AKT1 M227G Ser473 hyperphosphorylation expressed in HEK293 cells at 2.5 uM after 30 mins by immunoblotting. In kind it is cell-based.
In test [29] the target is Serine/threonine-protein kinase 26 (Homo sapiens) (UniProt Q9P289). The test can be described thus: Inhibition of MST4 at 1 uM in presence of 100 uM ATP by Select Screen kinase assay relative to untreated control.
Sequence of Serine/threonine-protein kinase 26 (Homo sapiens) (Q9P289 2-416 limits assumed): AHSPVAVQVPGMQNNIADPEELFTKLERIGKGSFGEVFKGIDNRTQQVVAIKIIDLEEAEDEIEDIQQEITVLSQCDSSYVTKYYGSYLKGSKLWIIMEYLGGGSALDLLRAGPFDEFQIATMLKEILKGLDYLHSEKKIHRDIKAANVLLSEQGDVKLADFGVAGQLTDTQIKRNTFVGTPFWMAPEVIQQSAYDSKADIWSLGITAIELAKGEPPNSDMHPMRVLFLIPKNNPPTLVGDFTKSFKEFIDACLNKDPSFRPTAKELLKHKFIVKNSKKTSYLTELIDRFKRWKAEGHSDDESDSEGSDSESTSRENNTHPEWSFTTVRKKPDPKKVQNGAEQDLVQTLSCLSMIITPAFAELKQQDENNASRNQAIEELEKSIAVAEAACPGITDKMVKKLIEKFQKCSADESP
In test [30] the target is RAC-alpha serine/threonine-protein kinase (Homo sapiens, UniProt P31749). The test is described as follows: Inhibition of AKT1.
Sequence of RAC-alpha serine/threonine-protein kinase (P31749 whole entry): as the sequence (P31749 whole entry M227G) above, with G227M counted along it

Calls of active or inactive are those of the source. The rule behind the calls is not given here.

What is called inhibition is the relative decrease from the control value, in per cent. As to `CCCc1cc(-c2cncc(OC[C@@H](N)Cc3c[nH]c4ccccc34)c2)cc2c(C)n[nH]c12`, the result in [1], in [2], in [4], in test [5], in [6] and in [7] was Active. The result in test [9], in test [10], in test [11], in [12], in test [14] and in test [16] was Active. Besides, the result in [18], in test [20], in test [21], in [22], in [23] and in test [26] was Active. In [28], the result was Active. For the same compound, the inhibition entry in [3] is “Active”. Besides, the fold change (FC) in [8] came to 10. Besides, the outcome in test [13], in [17], in test [24], in test [25] and in test [27] was inactive. Also, the Activity result in test [15] and in test [19] was “Dose-dependent effect” in each case.

The IC50 is the concentration that gives 50% inhibition. Take `COc1ccccc1N1CCN(c2ncnc3[nH]nc(Br)c23)CC1`: the inhibition in [29] came out at 11%. Moreover, the IC50 in [30] was 22 µM.
